In ChEMBL document CHEMBL1201862, “PubChem BioAssay data set” (2004):
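Method: 48-hour compound exposure of cells in 96-well plates, five concentrations, linear interpolation of endpoints. Abbreviation: GI50, concentration required for 50% inhibition of growth.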 Activity calls are given as the source filed them. No stated cut-off is given here; in the data, active = GI50 up to about 1.1 µM and inactive = higher.

What was measured:
Assay in all cases: NCI tumour cell line growth inhibition, 48 h
[1] = system: OVCAR-3
[2] = system: UACC-257
[3] = system: SK-MEL-28
[4] = system: M14
[5] = system: NCI-H522
[6] = system: SW-620
[7] = system: UACC-62
[8] = system: OVCAR-4
[9] = system: K562
[10] = system: SR
[11] = system: SK-OV-3
[12] = system: KM12
[13] = system: CAKI-1
[14] = system: SF-539
[15] = system: COLO 205
[16] = system: RPMI-8226

Measured: GI50

COc1nc2c(nc(N)n2C2OC(CO)C(O)C(O)C2O)c(=O)n1C (configuration not stated)
inactive: [1] > 100 µM | [2] > 100 µM | [3] > 100 µM | [4] > 100 µM | [5] > 100 µM | [6] > 100 µM | [7] > 100 µM | [8] > 100 µM | [9] > 100 µM | [10] > 100 µM | [11] > 100 µM | [12] > 100 µM | [13] > 100 µM | [14] > 100 µM | [15] > 100 µM

O=C(/C=C/c1ccc(OCC(=O)N2CCN(c3ccccc3)CC2)cc1)c1ccccc1
inactive: [1] 13.2 µM | [2] 17.1 µM | [3] 16 µM | [16] 3.75 µM | [4] 29.8 µM | [5] 3.6 µM | [6] 3.13 µM | [7] 17.8 µM | [8] 14.3 µM | [9] 3.18 µM | [10] 2.72 µM | [11] 38.1 µM | [12] 4.52 µM | [13] 93.3 µM | [14] 16.9 µM | [15] 26.1 µM

Oc1c(-c2ccccc2)nc2ccccn12
inactive: [1] > 100 µM | [2] > 100 µM | [3] > 100 µM | [4] > 100 µM | [5] > 100 µM | [6] > 100 µM | [7] > 100 µM | [8] > 100 µM | [9] > 100 µM | [10] > 100 µM | [11] > 100 µM | [12] > 100 µM | [13] > 100 µM | [14] > 100 µM

O=C1O[C@@H](c2ccc3c(c2)OCO3)C2C(=O)O[C@@H](c3ccc4c(c3)OCO4)C12 (some centres not stated)
inactive: [1] > 100 µM | [2] > 100 µM | [3] > 100 µM | [16] > 100 µM | [4] > 100 µM | [5] > 100 µM | [6] > 100 µM | [7] > 100 µM | [8] > 100 µM | [9] > 100 µM | [11] > 100 µM | [12] > 100 µM | [14] > 100 µM | [15] > 100 µM

Cc1cccc(NC(=O)CSc2nnc(-c3ccc(/N=C\c4ccc(Cl)cc4)cc3)o2)c1
inactive: [2] > 100 µM | [3] > 100 µM | [16] > 100 µM | [4] > 100 µM | [5] 38.2 µM | [6] > 100 µM | [7] > 100 µM | [8] 69.2 µM | [9] > 100 µM | [10] > 100 µM | [11] > 100 µM | [12] > 100 µM | [15] > 100 µM

CCCCCCCCCCCCOC(=S)NCCCC
inactive: [2] 16.5 µM | [3] 38 µM | [16] 15.7 µM | [4] 27.8 µM | [5] 14.5 µM | [6] 17.7 µM | [7] 16.7 µM | [8] 25.8 µM | [9] 19.3 µM | [10] 19 µM | [11] 18.7 µM | [12] 20 µM | [14] 21.3 µM

Oc1ccc(Br)cc1/C=N/c1ccc(/N=C/c2cc(Br)ccc2O)cc1
inactive: [2] > 100 µM | [16] > 100 µM | [4] > 100 µM | [6] > 100 µM | [8] > 100 µM | [9] > 100 µM | [10] > 100 µM | [11] > 100 µM | [12] > 100 µM | [13] > 100 µM | [14] > 100 µM

CCOC(=O)[C@@]1(C)C=C2O[C@@H]3OC4(CCCCC4)O[C@@H]3C2=C2C(O)=CC=C(O)[C@]21C(=O)OC
inactive: [1] > 68.1 µM | [2] > 68.1 µM | [3] > 68.1 µM | [16] 38.6 µM | [4] 20.7 µM | [5] > 68.1 µM | [6] > 68.1 µM | [7] > 68.1 µM | [8] > 68.1 µM | [9] 51.1 µM | [11] > 68.1 µM | [12] > 68.1 µM | [13] 51.4 µM | [15] > 68.1 µM

COc1ccccc1C1C(Cl)C(=O)N1NC(=O)Cc1ccccc1 (configuration not stated)
inactive: [1] > 100 µM | [2] > 100 µM | [3] > 100 µM | [16] 46.5 µM | [4] > 100 µM | [5] 48.3 µM | [6] 52.4 µM | [7] 83.2 µM | [8] 75.7 µM | [9] 35.2 µM | [10] 26.2 µM | [11] 71.4 µM | [12] > 100 µM | [13] 82.4 µM | [15] > 100 µM

CCOC(=O)NC(=O)c1cn(CCCCCCCCCCC(=O)NCCCN2CCN(CCCNC(=O)CCCCCCCCCCn3cc(C(=O)NC(=O)OCC)c(=O)[nH]c3=O)CC2)c(=O)[nH]c1=O
inactive: [1] > 10 µM | [2] > 100 µM | [3] > 100 µM | [4] > 10 µM | [5] > 10 µM | [6] > 100 µM | [7] > 100 µM | [9] > 100 µM | [10] > 100 µM | [11] > 100 µM | [12] > 100 µM | [13] > 10 µM | [14] > 100 µM | [15] > 100 µM

CC1=C(/C=C/C(C)=C/C2CC(N(C)C)=CC(=O)O2)C(C)(C)CCC1 (configuration not stated)
inactive: [1] 11.5 µM | [2] 11.9 µM | [3] 16.2 µM | [16] 1.37 µM | [4] 14.8 µM | [5] > 10 µM | [6] 16.2 µM | [7] 13.6 µM | [8] 16 µM | [9] 3.56 µM | [10] 8.09 µM | [11] 16.4 µM | [12] 15.6 µM | [13] 22.2 µM | [14] 16.5 µM | [15] 14.1 µM

Nc1nc(-c2ccc(Cl)c([N+](=O)[O-])c2)cs1
inactive: [1] > 100 µM | [2] > 100 µM | [16] > 100 µM | [4] > 100 µM | [6] > 100 µM | [7] > 100 µM | [8] > 100 µM | [9] > 100 µM | [11] > 100 µM | [12] 71 µM | [13] 80 µM | [14] 28.7 µM | [15] > 100 µM

CCOC(=O)C(C)c1cc(C2(C)OCCO2)c(C)o1 (configuration not stated)
inactive: [1] > 100 µM | [16] > 100 µM | [4] > 100 µM | [6] > 100 µM | [7] > 100 µM | [8] > 100 µM | [9] > 100 µM | [11] > 100 µM | [12] > 100 µM | [14] > 100 µM | [15] > 100 µM

COC(=O)C(CCC1(C)OCCO1)=[N+]=[N-]
inactive: [1] > 100 µM | [2] > 100 µM | [3] > 100 µM | [4] > 100 µM | [5] > 100 µM | [6] > 100 µM | [8] > 100 µM | [9] > 100 µM | [10] > 100 µM | [11] > 100 µM | [12] > 100 µM | [14] > 100 µM | [15] > 100 µM

CCOC(=O)C1=C(C)N(NC(=O)Nc2ccccc2)C(=O)C1=P(c1ccccc1)(c1ccccc1)c1ccccc1
inactive: [1] 36.5 µM | [2] 45.7 µM | [16] 24.2 µM | [4] 32.4 µM | [5] 19.4 µM | [6] 31 µM | [7] 25.6 µM | [8] 35.2 µM | [9] 26.6 µM | [10] 16.9 µM | [11] > 100 µM | [12] > 10 µM | [13] 44.7 µM | [14] 28.2 µM | [15] 25.3 µM

CCOC(=O)N(c1ccccc1)N(CC)C(=O)/C(C)=N/Nc1ccc([N+](=O)[O-])cc1
inactive: [1] 16.2 µM | [2] 15 µM | [3] 17.3 µM | [16] 16.8 µM | [4] 17.9 µM | [5] 15.3 µM | [6] 19.3 µM | [7] 13.6 µM | [8] 19.7 µM | [9] 14.7 µM | [10] 21.7 µM | [11] 19.8 µM | [12] 15.4 µM | [14] 16.1 µM | [15] 17.2 µM

Nc1ccc(/N=N/c2ccc(-c3ccc(/N=N/c4c(S(=O)(=O)O)cc5cc(S(=O)(=O)O)c(/N=N/c6ccc([N+](=O)[O-])cc6)c(N)c5c4O)cc3)cc2)c2cc(S(=O)(=O)O)ccc12
inactive: [1] > 100 µM | [2] > 100 µM | [3] > 100 µM | [16] > 100 µM | [4] > 100 µM | [5] > 100 µM | [6] > 100 µM | [7] > 100 µM | [8] > 100 µM | [9] > 100 µM | [10] > 100 µM | [11] > 100 µM | [12] > 100 µM | [13] > 100 µM | [14] > 100 µM | [15] > 100 µM

c1cc(C2O[C@H]3CCCN3[C@@H]2c2ccncc2)ccn1 (some centres not stated)
inactive: [1] > 100 µM | [2] > 100 µM | [3] > 100 µM | [16] > 100 µM | [4] > 100 µM | [5] > 100 µM | [6] > 100 µM | [7] > 100 µM | [8] > 100 µM | [9] > 100 µM | [11] > 100 µM | [12] > 100 µM | [13] > 100 µM | [14] > 100 µM | [15] > 100 µM

COc1ccc(C(O)c2cc(OC)c(OC)c(OC)c2)cc1 (configuration not stated)
inactive: [1] 18.5 µM | [2] 38.2 µM | [3] 72.1 µM | [16] 19.9 µM | [4] 13 µM | [5] 11.6 µM | [6] 6.85 µM | [7] 8.91 µM | [8] 31.8 µM | [9] 3.78 µM | [12] 7.52 µM | [13] 37.1 µM | [14] 21.3 µM | [15] 8.73 µM
